According to patent US6635641B2 (Agouron Pharmaceuticals, Inc., priority 2000, dated 2003):
Where two headings read alike, the source gives them in different places.

Tests used:
[1] = biological target: T1, phosphorylated VEGF-R2Δ50 (FLVK-P) (Homo sapiens, UniProt P35968, DEL940-989/E990V); assay: VEGF-R2 coupled spectrophotometric assay, phosphorylated construct (FLVK-P); assay type: biochemical
T1 construct: VEGF-R2Δ50 contains residues 806-939 and 990-1171; made in house; host or cells: baculovirus/insect cells
T1 sequence (P35968 with tags, fused parts or gaps DEL940-989/E990V limits assumed): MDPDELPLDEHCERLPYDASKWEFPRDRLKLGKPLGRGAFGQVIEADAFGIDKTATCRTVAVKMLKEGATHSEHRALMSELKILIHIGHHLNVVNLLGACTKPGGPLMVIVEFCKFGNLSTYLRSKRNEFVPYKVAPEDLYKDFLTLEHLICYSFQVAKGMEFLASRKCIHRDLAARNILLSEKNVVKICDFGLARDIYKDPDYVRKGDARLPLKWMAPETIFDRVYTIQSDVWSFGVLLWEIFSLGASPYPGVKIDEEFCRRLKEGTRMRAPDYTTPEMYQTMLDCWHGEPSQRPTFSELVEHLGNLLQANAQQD
In short: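 Continuous PK/LDH-coupled spectrophotometric read (NADH loss at 340 nm) with 5–40 nM enzyme in 200 mM Hepes pH 7.5. Phosphorylated construct run at 1 mM ATP, 25 mM MgCl2, 5.1 mM poly(E4Y1); unphosphorylated at 3 mM ATP, 60 mM MgCl2 plus 2 mM MnCl2, 20 mM poly(E4Y1). Ki values derived from varied inhibitor concentrations.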

[2] = biological target: T2, FGF-R1 intracellular kinase domain (Homo sapiens, UniProt P11362, C488A/C584S/L457V); assay: FGF-R spectrophotometric assay; assay type: biochemical; conditions: for Ki: read-out: FGF-P Ki;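 on all read-outs here: coupled PK/LDH enzyme assay: ADP from kinase phosphoryl transfer drives NADH oxidation, read as absorbance decrease at 340 nm, with 2 mM ATP and poly(E4Y1) substrate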
T2 construct: starting from the endogenous methionine residue 456 to glutamate 766; made in house; host or cells: baculovirus expression system
T2 sequence (P11362 456-766 L457V/C488A/C584S): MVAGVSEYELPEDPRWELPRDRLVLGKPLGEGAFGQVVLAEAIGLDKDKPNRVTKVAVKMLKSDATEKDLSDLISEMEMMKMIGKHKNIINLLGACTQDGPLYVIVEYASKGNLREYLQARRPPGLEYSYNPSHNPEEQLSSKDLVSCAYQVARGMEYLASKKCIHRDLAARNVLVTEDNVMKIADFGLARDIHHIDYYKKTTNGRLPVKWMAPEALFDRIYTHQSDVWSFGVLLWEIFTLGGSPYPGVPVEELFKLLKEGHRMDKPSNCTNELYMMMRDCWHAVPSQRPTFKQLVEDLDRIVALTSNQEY

[3] = system: human umbilical vein endothelial cells (HUVEC); assay: HUVEC proliferation assay (VEGF-stimulated, MTT); assay type: cell-based; conditions: Homo sapiens, HUVEC
In short: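 Proliferation measured by MTT reduction (4 h exposure, absorbance at 595) 72 hours after VEGF stimulation (final 6 ng/ml). Compound added to 24 h-starved HUVEC in F12K with 1% FBS and 0.1% final DMSO, one hour before the growth factor.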

[4] = system: lung cancer cells (line MV522); assay: Cancer cell proliferation (MV522) assay (MTT); assay type: cell-based; conditions: MV522
In short: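 Proliferation was read by MTT reduction 72 h after compound addition, in a 4-day protocol with no starvation step. Two thousand MV522 cells were seeded in RPMI1640 with 10% FBS and 2 mM glutamine and given 1 day to attach before dosing.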

[5] = with albumin, read-out: Huvec + Albumin IC50

## Cc1ccc2cc(NC(=O)c3cccc(SCc4cc(Nc5ccccc5)n[nH]4)c3)ccc2n1 [Example E-1, N-(2-methyl-quinolin-6-yl)-3-[{5-(phenylamino)-2-H-pyrazol-3-yl}methylsulfanyl]benzamide]
[1]
  Ki: 2.21 nM
other
  melting point: 172 to 174 °C
[2]; at 5 μM, read-out: FGF-P percent inhibition
  inhibition at 5 µM: 36%
[3]; read-out: HUVEC IC50
  IC50: 170 nM
[3]; [5]
  IC50: > 1000 nM
[4]
  IC50: > 10000 nM

## O=C(Nc1ccc(N2CCCC2)c(C(F)(F)F)c1)c1cccc(CCc2cc(Nc3cccnc3)n[nH]2)c1 [Example G-11]
[1]
  Ki: 0.17 nM
[2]
  Ki: 19 nM
[3]; read-out: HUVEC IC50
  IC50: 4.4 nM
[3]; [5]
  IC50: 64 nM
[4]
  IC50: 5600 nM

## Cc1cc(NC(=O)c2ccc(F)c(OCc3cncc4ccccc34)c2)ccc1C(C)C [Example K-10, N-(4-Isopropyl-3-methyl-phenyl)-4-fluoro-3-(Isoquinolin-4-yl)methoxy-benzamide]
[1]
  Ki: 2.19 nM
[2]
  Ki: 26 nM
[3]; read-out: HUVEC IC50
  IC50: 12 nM
[4]
  IC50: 4600 nM

## CC(=O)Nc1ccc(COc2cccc(C(=O)Nc3ccc4nc(C)ccc4c3)c2)cn1 [Example N-1, 3-(6-Acetylaminopyridin-3-yl)methoxy-N-(2-methyl-quinolin-6-yl)-benzamide]
[1]
  Ki: 3.74 nM
[2]; @ 1 μM, read-out: FGF-P percent inhibition
  inhibition at 1 µM: 12%
[3]; read-out: HUVEC IC50
  IC50: 38 nM
[3]; [5]
  IC50: > 1000 nM
[4]
  IC50: > 10000 nM
